Patent publication US9421492B2, “Aminopyridine derivatives for removal of hydrogen sulfide from a gas mixture” (Dow Global Technologies LLC, priority 2011, dated 2016)

Test: Solubility in unbuffered water
Conditions: unbuffered de-ionized water, 25° C., average of three experiments
Source text: The experiment is repeated three times and the average solubilities are reported as weight percent (wt %) in Table 1.

Question: For “1-hydroxyethyl-4-pyridynyl-pyperazine [HEPP]”, which “Solubility, wt %” value is on record?
Answer: Its value is 60 wt %.

Question: Which “Solubility, wt %” value does the source give for `CN(C)c1ccncc1` [DMAP, 4-dimethylaminopyridine] here?
Answer: The value was 8 wt %.

Question: Which “Solubility, wt %” value does the source give for `Cc1cc(N(C)C)cc(C)n1` [DMAPL, 2,6-dimethyl-4-(dimethylamino)pyridine] here?
Answer: Its value is 3 wt %.

Question: For `Cc1cc(N(C)C)ccn1` [DMAPP, 2-methyl-4-(dimethylamino)pyridine], which “Solubility, wt %” value is on record?
Answer: Its value is 5 wt %.
